Values joined by “and” are separate entries in the source; they are usually repeats but may differ in a detail not shown here. Equal entries are not always repeated.
Conditions: Liquid, Vibrating tube method

CCCCCC(=O)OCC(COC(=O)CCCCC)(COC(=O)CCCCC)COC(=O)CCCCC [pentaerythritol tetrahexanoate]
Conditions	mass density
323.17 K, 28058 kPa	990.9 kg/m3
323.17 K, 28086 kPa	991 kg/m3
323.17 K, 28114 kPa	991 kg/m3
323.17 K, 28143 kPa	991 kg/m3
323.17 K, 28171 kPa	991 kg/m3
323.17 K, 28198 kPa	991 kg/m3
323.17 K, 28227 kPa	991 kg/m3
323.17 K, 28250 kPa	991 kg/m3
323.17 K, 28280 kPa	991.1 kg/m3
323.17 K, 32281 kPa	993.5 kg/m3
323.17 K, 32302 kPa	993.5 kg/m3
323.17 K, 32323 kPa	993.5 kg/m3
323.17 K, 32340 kPa	993.5 kg/m3
323.17 K, 32354 kPa	993.5 kg/m3
323.18 K, 15635 kPa	983.3 kg/m3
323.18 K, 15665 kPa	983.3 kg/m3
323.18 K, 15689 kPa	983.4 kg/m3
323.18 K, 15719 kPa	983.4 kg/m3
323.18 K, 15747 kPa	983.4 kg/m3
323.18 K, 15770 kPa	983.3 kg/m3
323.18 K, 15797 kPa	983.4 kg/m3
323.18 K, 15822 kPa	983.4 kg/m3
323.18 K, 16186 kPa	983.7 kg/m3
323.18 K, 16212 kPa	983.6 kg/m3
323.18 K, 16234 kPa	983.7 kg/m3
323.18 K, 16261 kPa	983.7 kg/m3
323.18 K, 16283 kPa	983.8 kg/m3
323.18 K, 25706 kPa	989.7 kg/m3
343.14 K, 219.9 kPa	957.2 kg/m3
343.14 K, 220 kPa	957.3 kg/m3
343.14 K, 220.3 kPa	957.1 kg/m3 and 957.2 kg/m3
343.14 K, 223.6 kPa	957.3 kg/m3
343.14 K, 348.7 kPa	957.3 kg/m3
343.14 K, 348.9 kPa	957.2 kg/m3
343.14 K, 349 kPa	957.3 kg/m3
343.14 K, 349.6 kPa	957.4 kg/m3
343.14 K, 350.2 kPa	957.3 kg/m3
343.14 K, 350.4 kPa	957.2 kg/m3
343.14 K, 350.6 kPa	957.3 kg/m3
343.14 K, 351.1 kPa	957.3 kg/m3
343.14 K, 351.3 kPa	957.3 kg/m3
343.14 K, 387.3 kPa	957.4 kg/m3
343.14 K, 387.4 kPa	957.2 kg/m3
343.14 K, 388.3 kPa	957.4 kg/m3 and 957.5 kg/m3
343.14 K, 388.5 kPa	957.4 kg/m3
343.14 K, 388.8 kPa	957.5 kg/m3
343.14 K, 389.7 kPa	957.3 kg/m3
343.14 K, 390.2 kPa	957.5 kg/m3
343.14 K, 754.9 kPa	957.7 kg/m3
343.14 K, 762.4 kPa	957.6 kg/m3
343.14 K, 769.9 kPa	957.7 kg/m3
343.14 K, 778.4 kPa	957.6 kg/m3
343.14 K, 925.3 kPa	957.8 kg/m3
343.14 K, 935.1 kPa	957.8 kg/m3
343.14 K, 947.2 kPa	957.8 kg/m3
343.14 K, 956.9 kPa	957.8 kg/m3
343.14 K, 1145.7 kPa	958 kg/m3
343.14 K, 1156.5 kPa	958 kg/m3
343.14 K, 1168 kPa	958 kg/m3
343.14 K, 1181.7 kPa	958 kg/m3
343.14 K, 1193 kPa	958 kg/m3
343.14 K, 1206.5 kPa	958 kg/m3
343.14 K, 1218.3 kPa	958 kg/m3
343.14 K, 1230.1 kPa	958.1 kg/m3
343.14 K, 1242.1 kPa	958.1 kg/m3
343.14 K, 1256.4 kPa	958.1 kg/m3
343.14 K, 1268.3 kPa	958 kg/m3
343.14 K, 2111 kPa	958.7 kg/m3
343.14 K, 2133.5 kPa	958.7 kg/m3
343.14 K, 2152.4 kPa	958.7 kg/m3
343.14 K, 2172.4 kPa	958.8 kg/m3
343.14 K, 2192.8 kPa	958.8 kg/m3
343.14 K, 2212.6 kPa	958.8 kg/m3
343.14 K, 2232.6 kPa	958.8 kg/m3
343.14 K, 2256.5 kPa	958.8 kg/m3
343.14 K, 2276.6 kPa	958.9 kg/m3
343.14 K, 2301.1 kPa	958.8 kg/m3
343.14 K, 2322.3 kPa	958.9 kg/m3
343.14 K, 2342.9 kPa	958.8 kg/m3
343.14 K, 2498.5 kPa	959.1 kg/m3
343.14 K, 2520.2 kPa	958.9 kg/m3
343.14 K, 2541.5 kPa	959.1 kg/m3
343.14 K, 2567.9 kPa	959 kg/m3
343.14 K, 2590.1 kPa	959.1 kg/m3
343.14 K, 2612.1 kPa	959 kg/m3
343.14 K, 2638.5 kPa	959.1 kg/m3
343.14 K, 2660.7 kPa	959.1 kg/m3
343.14 K, 2683.4 kPa	959.2 kg/m3
343.14 K, 6196.6 kPa	961.7 kg/m3
343.14 K, 6236.7 kPa	961.9 kg/m3
343.14 K, 6269.8 kPa	961.8 kg/m3
343.14 K, 6638.6 kPa	962.2 kg/m3
343.14 K, 6667.6 kPa	962.1 kg/m3
343.14 K, 6695.6 kPa	962.2 kg/m3
343.14 K, 6726.9 kPa	962.2 kg/m3
343.14 K, 7550.4 kPa	962.9 kg/m3
343.14 K, 7576.5 kPa	962.8 kg/m3
343.14 K, 7602.9 kPa	962.8 kg/m3
343.14 K, 7633.5 kPa	962.9 kg/m3
343.14 K, 7659 kPa	962.9 kg/m3
343.14 K, 7685.3 kPa	963 kg/m3
343.14 K, 7716.2 kPa	962.9 kg/m3
343.14 K, 7742 kPa	963 kg/m3
343.14 K, 8529.9 kPa	963.5 kg/m3
343.14 K, 8557.5 kPa	963.5 kg/m3
343.14 K, 8590 kPa	963.6 kg/m3
343.14 K, 8617.8 kPa	963.7 kg/m3
343.14 K, 8680.1 kPa	963.6 kg/m3
343.14 K, 8708.7 kPa	963.8 kg/m3
343.14 K, 11319 kPa	965.5 kg/m3
343.14 K, 11356 kPa	965.5 kg/m3
343.14 K, 11392 kPa	965.6 kg/m3
343.14 K, 11435 kPa	965.6 kg/m3
343.14 K, 11471 kPa	965.7 kg/m3
343.14 K, 11507 kPa	965.8 kg/m3
343.14 K, 11550 kPa	965.7 kg/m3
343.14 K, 11586 kPa	965.8 kg/m3
343.14 K, 11622 kPa	965.8 kg/m3
343.14 K, 11664 kPa	966 kg/m3
343.14 K, 12063 kPa	966.2 kg/m3
343.14 K, 12100 kPa	966.1 kg/m3
343.14 K, 12131 kPa	966.2 kg/m3
343.14 K, 12213 kPa	966.1 kg/m3
343.14 K, 17659 kPa	969.9 kg/m3
343.14 K, 18549 kPa	970.7 kg/m3
343.14 K, 18578 kPa	970.7 kg/m3
343.14 K, 18602 kPa	970.7 kg/m3
343.14 K, 18626 kPa	970.7 kg/m3
343.14 K, 18893 kPa	970.8 kg/m3
343.14 K, 20126 kPa	971.6 kg/m3 and 971.7 kg/m3
343.14 K, 20127 kPa	971.7 kg/m3
343.14 K, 20128 kPa	971.7 kg/m3
343.14 K, 25755 kPa	975.4 kg/m3
343.14 K, 25795 kPa	975.4 kg/m3
343.14 K, 25825 kPa	975.4 kg/m3
343.14 K, 25856 kPa	975.4 kg/m3
343.14 K, 25888 kPa	975.5 kg/m3
343.14 K, 25925 kPa	975.6 kg/m3
343.14 K, 25957 kPa	975.5 kg/m3
343.14 K, 25988 kPa	975.6 kg/m3
343.14 K, 26018 kPa	975.6 kg/m3
343.14 K, 26052 kPa	975.6 kg/m3
343.15 K, 203.3 kPa	957.3 kg/m3
343.15 K, 203.6 kPa	957.2 kg/m3 and 957.3 kg/m3 and 957.1 kg/m3

Source: the NIST ThermoML archive (doi:10.1021/je060271a)
